Experimental data as given in patent publication US5053070A, “Pyrimidine derivatives, preparation processes thereof, herbicide containing the same, and herbicidal compositions containing the same along with other active ingredient” (Mitsui Toatsu Chemicals, Incorporated, priority 1988, dated 1991).
≈ marks a conversion by molar mass, not a printed value.

Legend:
Assay type in all cases: in vivo
peanut = assay: Upland soil application test (Test 2), crop injury; conditions: 30 g ai/a, soil spray before emergence, 30 days later
Experimental: (§1) Resin-made 1/2500-are pots were filled with the soil of an upland field. After they were fertilized, soybean, peanut and cotton were seeded and 2-3 cm soil covering was applied. Seeds of redroot pigweed, common lambsquarters, barnyardgrass, green foxtail, large crabgrass, foxtail meadow and johnsongrass had been uniformly mixed with the soil. They were allowed to germinate in a green house. One day later (before emergence of weeds), a wettable powder prepared from a predetermined amount of each test compound in a similar manner to the method described in Formulation Example 1 was diluted with water and then sprayed evenly at an application rate equal to 10 l per are onto the surface of the soil by means of a pressure-operated ULV (ultra low volume) sprayer. Influence to the crops and weeds were observed 30 days later. The results are shown in Table 3, in which the degree of damages of each test plant and the degree of injury to each crop were determined by comparing the air-dried weights of the test plant and crop with those of the corresponding plant and crop in untreated pots and are shown in accordance with the following standard: […]

soybean = assay: Upland soil application test (Test 2), crop injury; conditions: 30 g ai/a, soil spray before emergence, 30 days later
Experimental: as §1

cotton = assay: Upland soil application test (Test 2), crop injury; conditions: 30 g ai/a, soil spray before emergence, 30 days later
Experimental: as §1

foxtail meadow = assay: Upland soil application test (Test 2); conditions: 30 g ai/a, soil spray before emergence, 30 days later
Experimental: as §1

johnsongrass = assay: Upland soil application test (Test 2); conditions: 30 g ai/a, soil spray before emergence, 30 days later
Experimental: as §1

green foxtail = assay: Upland soil application test (Test 2); conditions: 30 g ai/a, soil spray before emergence, 30 days later
Experimental: as §1

common lambsquarters = assay: Upland soil application test (Test 2); conditions: 30 g ai/a, soil spray before emergence, 30 days later
Experimental: as §1

redroot pigweed = assay: Upland soil application test (Test 2); conditions: 30 g ai/a, soil spray before emergence, 30 days later
Experimental: as §1

barnyardgrass [1] = assay: Upland soil application test (Test 2); conditions: 30 g ai/a, soil spray before emergence, 30 days later
Experimental: as §1

large crabgrass = assay: Upland soil application test (Test 2); conditions: 30 g ai/a, soil spray before emergence, 30 days later
Experimental: as §1

bulrush = assay: Treatment of soil under submerged condition, pre-emergence (Test 4); conditions: 30 g ai/a granule, 30 days later
Experimental: (§2) 1/5000-are Wagner pots were filled with soil. Seeds or tubers of barnyardgrass, Monochoria vaginalis, bulrush, Sagittaria pygmaea, Cyperus seroylnus and Eleocharis kuroguwai were seeded or planted under submerged condition. Two pairs of rice seedlings (2-3 leaf stage), which had been reared in advance, were transplanted to each pot and were allowed to germinate in a green house. Each pair consisted of two rice seedlings. One day later (before emergence of weeds), each pot was treated with a granule which had been prepared by processing a predetermined amount of the test composition in accordance with a similar method to the method described in Formulation Example 9. The state of emergence of weeds and the state of injury of rice were observed 30 days later.
(§3) In the table, the degrees of damages of the test plants and the degrees of injury of rice are shown in a similar manner to Example 2.

Sagittaria pygmaea = assay: as above; conditions: 30 g ai/a granule, 30 days later
Experimental: as §2, §3

barnyardgrass [2] = assay: as above; conditions: 30 g ai/a granule, 30 days later
Experimental: as §2, §3

narrowleaf waterplantain = assay: Petri dish test (Test 6); conditions: 336 h; seeds on filter paper, 25° C., 14 days; read-out: I80 (ppm)
Experimental: A filter paper was placed in each glass-made Petri dish having a diameter of 9 cm. A compound dissolved in acetone was added in a predetermined amount. The filter paper was then dried in air to remove acetone. Seeds of narrowleaf waterplantain were placed on the filter paper and 10 ml of water were poured into the Petri dish. The seeds were allowed to grow at 25° C. in a bright room. Fourteen days later, the state of growth of narrowleaf water-plantain was observed.
In the table, the degree of damages of the test plant was determined by comparing the state of growth of the plant with that of the plant in an untreated group and is shown in accordance with the following standard: […]

| SMILES | Injury Peanut (peanut) | Injury Soybean (soybean) | Injury Cotton (cotton) | Herbicidal effects Foxtail meadow (foxtail meadow) | Herbicidal effects Johnsongrass (johnsongrass) | Herbicidal effects Green foxtail (green foxtail) | Herbicidal effects Common lambsquarters (common lambsquarters) | Herbicidal effects Redroot pigweed (redroot pigweed) | Herbicidal effects Barnyardgrass (barnyardgrass [1]) | Herbicidal effects Large crabgrass (large crabgrass) | Herbicidal effects Bulrush (bulrush) | Herbicidal effects Sagittaria Pygmaea (Sagittaria pygmaea) | Herbicidal effects Barnyardgrass (barnyardgrass [2]) | IC80 (narrowleaf waterplantain) |
| --- | --- | --- | --- | --- | --- | --- | --- | --- | --- | --- | --- | --- | --- | --- |
| COc1cc(OC)nc(Oc2ccccc2C=NOCC=Cc2ccc(C)cc2)n1 [compound 36] | 0 (91-100 (No damages)) | 0 (91-100 (No damages)) | 0 (91-100 (No damages)) | 5 (0-5 (Death)) | 5 (0-5 (Death)) | 5 (0-5 (Death)) | 4 (6-10 (Severe damages)) | 4 (6-10 (Severe damages)) | 5 (0-5 (Death)) | 5 (0-5 (Death)) | 4 (6-10 (Severe damages)) | 5 (0-5 (Death)) | 4 (6-10 (Severe damages)) | 4 µg/mL (≈ 9.87 µM) |
| COC(=O)c1ccccc1Oc1nc(OC)cc(OC)n1 [A, reference compound] | 5 (0-5 (Death)) | 5 (0-5 (Death)) | 5 (0-5 (Death)) | 5 (0-5 (Death)) | 5 (0-5 (Death)) | 5 (0-5 (Death)) | 4 (6-10 (Severe damages)) | 5 (0-5 (Death)) | 5 (0-5 (Death)) | 5 (0-5 (Death)) | 5 (0-5 (Death)) | 4 (6-10 (Severe damages)) | 5 (0-5 (Death)) | 1 µg/mL (≈ 3.45 µM) |
| C=CCON=Cc1ccccc1Oc1nc(OC)cc(OC)n1 [Compound No. 4] | 0 (91-100 (No damages)) | 0 (91-100 (No damages)) | 0 (91-100 (No damages)) | 5 (0-5 (Death)) | 5 (0-5 (Death)) | 5 (0-5 (Death)) | 3 (11-40 (Medium damages)) | 4 (6-10 (Severe damages)) | 5 (0-5 (Death)) | 4 (6-10 (Severe damages)) | 4 (6-10 (Severe damages)) | 4 (6-10 (Severe damages)) | 4 (6-10 (Severe damages)) | 100 µg/mL (≈ 317 µM) |
| C=C(C)CON=Cc1ccccc1Oc1nc(OC)cc(OC)n1 [compound 5] | 0 (91-100 (No damages)) | 0 (91-100 (No damages)) | 0 (91-100 (No damages)) | 5 (0-5 (Death)) | 5 (0-5 (Death)) | 5 (0-5 (Death)) | 4 (6-10 (Severe damages)) | 4 (6-10 (Severe damages)) | 5 (0-5 (Death)) | 5 (0-5 (Death)) | 4 (6-10 (Severe damages)) | 5 (0-5 (Death)) | 4 (6-10 (Severe damages)) | 17 µg/mL (≈ 51.6 µM) |
| COc1cc(OC)nc(Oc2ccccc2C=NOCC=Cc2cccc(Cl)c2)n1 [Compound No. 26, 0-(3-chlorocinnamyl)-2-(4,6-dimethoxy-2-pyrimidinyloxy)benzaldxime] | 0 (91-100 (No damages)) | 0 (91-100 (No damages)) | 0 (91-100 (No damages)) | 4 (6-10 (Severe damages)) | 5 (0-5 (Death)) | 5 (0-5 (Death)) | 4 (6-10 (Severe damages)) | 5 (0-5 (Death)) | 5 (0-5 (Death)) | 5 (0-5 (Death)) | 4 (6-10 (Severe damages)) | 5 (0-5 (Death)) | 4 (6-10 (Severe damages)) | 2 µg/mL (≈ 4.7 µM) |
| COc1cc(OC)nc(Oc2ccccc2C=NOCc2cccc3ccccc23)n1 [compound 22] | 0 (91-100 (No damages)) | 0 (91-100 (No damages)) | 0 (91-100 (No damages)) | 4 (6-10 (Severe damages)) | 4 (6-10 (Severe damages)) | 4 (6-10 (Severe damages)) | 3 (11-40 (Medium damages)) | 3 (11-40 (Medium damages)) | 3 (11-40 (Medium damages)) | 3 (11-40 (Medium damages)) | 3 (11-40 (Medium damages)) | 3 (11-40 (Medium damages)) | 3 (11-40 (Medium damages)) | 100 µg/mL (≈ 241 µM) |
| COc1cc(OC)nc(Oc2ccccc2C=NOCC=C(C)Cl)n1 [compound 12] | 0 (91-100 (No damages)) | 0 (91-100 (No damages)) | 0 (91-100 (No damages)) | 4 (6-10 (Severe damages)) | 4 (6-10 (Severe damages)) | 4 (6-10 (Severe damages)) | 3 (11-40 (Medium damages)) | 3 (11-40 (Medium damages)) | 4 (6-10 (Severe damages)) | 4 (6-10 (Severe damages)) | 4 (6-10 (Severe damages)) | 4 (6-10 (Severe damages)) | 4 (6-10 (Severe damages)) | 100 µg/mL (≈ 275 µM) |
| COc1cc(OC)nc(Oc2ccccc2C=NOCc2ccc(Cl)c(Cl)c2)n1 [compound 18] | – | 0 (91-100 (No damages)) | 0 (91-100 (No damages)) | 3 (11-40 (Medium damages)) | 3 (11-40 (Medium damages)) | 4 (6-10 (Severe damages)) | 4 (6-10 (Severe damages)) | 3 (11-40 (Medium damages)) | 4 (6-10 (Severe damages)) | 3 (11-40 (Medium damages)) | 2 (41-70 (Small damages)) | 4 (6-10 (Severe damages)) | 4 (6-10 (Severe damages)) | 67 µg/mL (≈ 154 µM) |
